What all share (format): cell-based
The test system of one experiment is BaF3_HER2YVMA cells. Briefly: Cell growth inhibition assay, BaF3_HER2YVMA. To be noted: 72 h, BaF3_HER2YVMA cells, 3 days treatment, CellTiterGlo 2.0; read-out: HER2-YVMA IC50 (nM), cell growth inhibition. Background: Cellular ATP, detected with luciferase, serves as a proxy for viable cell number.
A further experiment concerns BaF3_HER2WT cells. Put plainly: Cell growth inhibition assay, BaF3_HER2WT. To be noted: 72 h, 3 days treatment, CellTiterGlo 2.0, read-out: HER2 WT IC50 (nM), cell growth inhibition.
The test system of a further experiment is BaF3_EGFRWT cells. Put plainly: Cell growth inhibition assay, BaF3_EGFRWT. The note with it: 72 h, 80 ng/mL recombinant human EGF, 3 days treatment, CellTiterGlo 2.0, read-out: EGFR WT IC50 (nM), cell growth inhibition.

As usually defined, the IC50 is the midpoint of a concentration-inhibition curve.

In the case of `C=CC(=O)N(C)C1CCN(c2ccn3ncnc(Nc4ccc(Oc5ccn6ncnc6c5)c(C)c4)c23)C1` (stereo not drawn) [Example 72, N-(1-(4-((4-([1,2,4]triazolo[1,5-a]pyridin-7-yloxy)-3-methylphenyl)amino)pyrrolo[2,1-f][1,2,4]triazin-5-yl)pyrrolidin-3-yl)-N-methylacrylamide], the IC50 is less than 200 nM in the experiment with BaF3_HER2YVMA cells, less than 200 nM in the experiment with BaF3_HER2WT cells and 1500 to 5000 nM with BaF3_EGFRWT cells.

For `Cc1cc(Nc2ncnn3ccc(N4CCC(N(C)C(=O)/C=C/CN(C)C)CC4)c23)ccc1Oc1ccn2ncnc2c1` [Example 73, (E)-N-(1-(4-((4-([1,2,4]triazolo[1,5-a]pyridin-7-yloxy)-3-methylphenyl)amino)pyrrolo[2,1-f][1,2,4]triazin-5-yl)piperidin-4-yl)-4-(dimethylamino)-N-methylbut-2-enamide], the results for the half-inhibitory concentration (IC50) with BaF3_HER2YVMA cells, in the experiment on BaF3_HER2WT cells and with BaF3_EGFRWT cells were 500 to 1500 nM, less than 200 nM and 1500 to 5000 nM, respectively.

Take `C=CC(=O)N(C)C1CCN(c2ccn3ncnc(Nc4ccc(Oc5ccn6ncnc6c5)c(C)c4)c23)CC1` [Example 74, N-(1-(4-((4-([1,2,4]triazolo[1,5-a]pyridin-7-yloxy)-3-methylphenyl)amino)pyrrolo[2,1-f][1,2,4]triazin-5-yl)piperidin-4-yl)-N-methylacrylamide]: the IC50 in the experiment with BaF3_HER2YVMA cells is 500 to 1500 nM; in the experiment with BaF3_HER2WT cells, less than 200 nM; with BaF3_EGFRWT cells, 1500 to 5000 nM.

With `C=CC(=O)N1CCN(c2ccn3ncnc(Nc4ccc(Oc5ccn6ncnc6c5)c(C)c4)c23)CC12CC2` [Example 75, 1-(7-(4-((4-([1,2,4]triazolo[1,5-a]pyridin-7-yloxy)-3-methylphenyl)amino)pyrrolo[2,1-f][1,2,4]triazin-5-yl)-4,7-diazaspiro[2.5]octan-4-yl)prop-2-en-1-one], the values for the 50% inhibitory concentration (IC50) in the experiment with BaF3_HER2YVMA cells, with BaF3_HER2WT cells and in the experiment with BaF3_EGFRWT cells were less than 200 nM, less than 200 nM and 500 to 1500 nM, respectively.

On to `C=CC(=O)NC1CCCN(c2ccn3ncnc(Nc4ccc(Oc5ccn6ncnc6c5)c(C)c4)c23)C1` (stereo not drawn) [Example 76, N-(1-(4-((4-([1,2,4]triazolo[1,5-a]pyridin-7-yloxy)-3-methylphenyl)amino)pyrrolo[2,1-f][1,2,4]triazin-5-yl)piperidin-3-yl)acrylamide], for which the concentration for half-maximal inhibition (IC50) in the experiment on BaF3_HER2YVMA cells was 500 to 1500 nM; in the experiment with BaF3_HER2WT cells, less than 200 nM; in the experiment with BaF3_EGFRWT cells, 1500 to 5000 nM.

As to `C=CC(=O)N1CC(N(C)c2ccn3ncnc(Nc4ccc(Oc5ccn6ncnc6c5)c(C)c4)c23)C1` [Example 77, 1-(3-((4-((4-([1,2,4]triazolo[1,5-a]pyridin-7-yloxy)-3-methylphenyl)amino)pyrrolo[2,1-f][1,2,4]triazin-5-yl)(methyl)amino)azetidin-1-yl)prop-2-en-1-one], the half-maximal inhibitory concentration (IC50) in the experiment with BaF3_HER2YVMA cells is 1500 to 5000 nM; in the experiment on BaF3_HER2WT cells it was 200 to 500 nM; with BaF3_EGFRWT cells, 1500 to 5000 nM.

Take `C=CC(=O)NC1CCN(c2ccn3ncnc(Nc4ccc(Oc5ccn6ncnc6c5)c(C)c4)c23)CC1` [Example 78, N-(1-(4-((4-([1,2,4]triazolo[1,5-a]pyridin-7-yloxy)-3-methylphenyl)amino)pyrrolo[2,1-f][1,2,4]triazin-5-yl)piperidin-4-yl)acrylamide]: the results for the IC50 in the experiment with BaF3_HER2YVMA cells, in the experiment with BaF3_HER2WT cells and in the experiment with BaF3_EGFRWT cells were 200 to 500 nM, less than 200 nM and 1500 to 5000 nM, respectively.

Regarding `C=CC(=O)NC1CCN(c2ccn3ncnc(Nc4ccc(Oc5ccn6ncnc6c5)c(C)c4)c23)C1` (stereo not drawn) [Example 79, N-(1-(4-((4-([1,2,4]triazolo[1,5-a]pyridin-7-yloxy)-3-methylphenyl)amino)pyrrolo[2,1-f][1,2,4]triazin-5-yl)pyrrolidin-3-yl)acrylamide], the concentration for half-maximal inhibition (IC50) in the experiment with BaF3_HER2YVMA cells was 200 to 500 nM; in the experiment on BaF3_HER2WT cells, less than 200 nM; with BaF3_EGFRWT cells, 1500 to 5000 nM.

As for `Cc1cc(Nc2ncnn3ccc(N4CCCN(C(=O)/C=C/CN5CCOCC5)CC4)c23)ccc1Oc1ccn2ncnc2c1` [Example 80, (E)-1-(4-(4-((4-([1,2,4]triazolo[1,5-a]pyridin-7-yloxy)-3-methylphenyl)amino)pyrrolo[2,1-f][1,2,4]triazin-5-yl)-1,4-diazepan-1-yl)-4-morpholinobut-2-en-1-one], the half-inhibitory concentration (IC50) in the experiment with BaF3_HER2YVMA cells was 1500 to 5000 nM; in the experiment on BaF3_HER2WT cells, less than 200 nM; in the experiment with BaF3_EGFRWT cells it was 1500 to 5000 nM.

For the compound `Cc1cc(Nc2ncnn3ccc(N4CC(NC(=O)/C=C/CN5CCOCC5)C4)c23)ccc1Oc1ccn2ncnc2c1` [Example 81, (E)-N-(1-(4-((4-([1,2,4]triazolo[1,5-a]pyridin-7-yloxy)-3-methylphenyl)amino)pyrrolo[2,1-f][1,2,4]triazin-5-yl)azetidin-3-yl)-4-morpholinobut-2-enamide], the concentration for half-maximal inhibition (IC50) lay in the range of 1500 to 5000 nM in the experiment with BaF3_HER2YVMA cells, 200 to 500 nM in the experiment on BaF3_HER2WT cells and 1500 to 5000 nM in the experiment on BaF3_EGFRWT cells.

On to `Cc1cc(Nc2ncnn3ccc(C4CN(C(=O)/C=C/CN5CCC(F)(F)C5)C4)c23)ccc1Oc1ccn2ncnc2c1` [Example 84, (E)-1-(3-(4-((4-([1,2,4]triazolo[1,5-a]pyridin-7-yloxy)-3-methylphenyl)amino)pyrrolo[2,1-f][1,2,4]triazin-5-yl)azetidin-1-yl)-4-(3,3-difluoropyrrolidin-1-yl)but-2-en-1-one], for which the IC50 with BaF3_HER2YVMA cells was 200 to 500 nM; in the experiment on BaF3_HER2WT cells, less than 200 nM; with BaF3_EGFRWT cells, 1500 to 5000 nM.

Take `Cc1cc(Nc2ncnn3ccc(C4CN(C(=O)/C=C/CN5CCC(F)(F)CC5)C4)c23)ccc1Oc1ccn2ncnc2c1` [Example 85, (E)-1-(3-(4-((4-([1,2,4]triazolo[1,5-a]pyridin-7-yloxy)-3-methylphenyl)amino)pyrrolo[2,1-f][1,2,4]triazin-5-yl)azetidin-1-yl)-4-(4,4-difluoropiperidin-1-yl)but-2-en-1-one]: the half-maximal inhibitory concentration (IC50) in the experiment on BaF3_HER2YVMA cells was less than 200 nM; in the experiment with BaF3_HER2WT cells, less than 200 nM; with BaF3_EGFRWT cells, 1500 to 5000 nM.

In the case of `Cc1cc(Nc2c(C#N)cnn3ccc(C4CN(C(=O)/C=C/CN(C)C)C4)c23)ccc1Oc1ccn2ncnc2c1` [Example 86, (E)-4-((4-([1,2,4]triazolo[1,5-a]pyridin-7-yloxy)-3-methylphenyl)amino)-5-(1-(4-(dimethylamino)-but-2-enoyl)azetidin-3-yl)pyrrolo[1,2-b]pyridazine-3-carbonitrile], the IC50 in the experiment on BaF3_HER2YVMA cells is greater than 5000 nM; in the experiment on BaF3_HER2WT cells, 1500 to 5000 nM; in the experiment on BaF3_EGFRWT cells, 1500 to 5000 nM.

Turning to `Cc1cc(Nc2ncnn3cnc(C4CCN(C(=O)/C=C/CN(C)C)CC4)c23)ccc1Oc1ccn2ncnc2c1` [Example 88, (E)-1-(4-(4-((4-([1,2,4]triazolo[1,5-a]pyridin-7-yloxy)-3-methylphenyl)amino)imidazo[5,1-f][1,2,4]triazin-5-yl)piperidin-1-yl)-4-(dimethylamino)but-2-en-1-one], the values for the half-inhibitory concentration (IC50) with BaF3_HER2YVMA cells, in the experiment with BaF3_HER2WT cells and in the experiment on BaF3_EGFRWT cells were 1500 to 5000 nM, 500 to 1500 nM and 1500 to 5000 nM, respectively.

As for `Cc1cc(Nc2ncnn3ccc(C4CN(C(=O)/C(C#N)=C/C(C)(C)C)C4)c23)ccc1Oc1ccn2ncnc2c1` [Example 89, (E)-2-(3-(4-((4-([1,2,4]triazolo[1,5-a]pyridin-7-yloxy)-3-methylphenyl)amino)pyro-lo[2,1-f][1,2,4]triazin-5-yl)azetidine-1-carbonyl)-4,4-dimethylpent-2-enenitrile], the IC50 in the experiment on BaF3_HER2YVMA cells, in the experiment on BaF3_HER2WT cells and in the experiment with BaF3_EGFRWT cells was 1500 to 5000 nM in each case.

Take `CN(C)C/C=C/C(=O)N1CC(c2ccn3ncnc(Nc4cnc(Oc5cccc(C(F)(F)F)c5)c(Cl)c4)c23)C1` [Example 90, (E)-1-(3-(4-((5-chloro-6-(3-(trifluoromethyl)phenoxy)pyridin-3-yl)amino)pyrrolo[2,1-f][1,2,4]triazin-5-yl)azetidin-1-yl)-4-(dimethylamino)but-2-en-1-one]: the half-maximal inhibitory concentration (IC50) in the experiment on BaF3_HER2YVMA cells, with BaF3_HER2WT cells and in the experiment with BaF3_EGFRWT cells was 1500 to 5000 nM throughout.

Turning to `Cc1cc(Nc2ncnn3ccc(C4CN(C(=O)/C(F)=C/C5CCCN5C)C4)c23)ccc1Oc1ccn2ncnc2c1` (stereo not drawn) [Example 92, (Z)-1-(3-(4-((4-([1,2,4]triazolo[1,5-a]pyridin-7-yloxy)-3-methylphenyl)amino)pyrrolo[2,1-f][1,2,4]triazin-5-yl)azetidin-1-yl)-2-fluoro-3-(1-methylpyrrolidin-2-yl)prop-2-en-1-one], the IC50 in the experiment on BaF3_HER2YVMA cells is less than 200 nM; in the experiment on BaF3_HER2WT cells it was less than 200 nM; in the experiment on BaF3_EGFRWT cells it was 1500 to 5000 nM.

`COC1CN(C/C=C/C(=O)N2CCC(c3ccn4ncnc(Nc5ccc(Oc6ccn7ncnc7c6)c(C)c5)c34)CC2)C1` [Example 117, (E)-1-(4-(4-((4-([1,2,4]triazolo[1,5-a]-207-midazol-7-yloxy)-3-methylphenyl)amino)pyrrolo[2,1-f][1,2,4]triazin-5-yl)piperidin-1-yl)-4-(3-methoxyazetidin-1-yl)but-2-en-1-one]: the IC50 with BaF3_HER2YVMA cells is less than 200 nM; in the experiment on BaF3_HER2WT cells, less than 200 nM; in the experiment with BaF3_EGFRWT cells it was 1500 to 5000 nM.

In the case of `COC1CCN(C/C=C/C(=O)N2CCC(c3ccn4ncnc(Nc5ccc(Oc6ccn7ncnc7c6)c(C)c5)c34)CC2)C1` (stereo not drawn) [Example 118, E-1-(4-(4-((4-([1,2,4]triazolo[1,5-a]-207-midazol-7-yloxy)-3-methylphenyl)amino)pyrrolo[2,1-f][1,2,4]triazin-5-yl)piperidin-1-yl)-4-(3-methoxypyrrolidin-1-yl)but-2-en-1-one], the IC50 was less than 200 nM in the experiment with BaF3_HER2YVMA cells, less than 200 nM in the experiment on BaF3_HER2WT cells and 1500 to 5000 nM in the experiment on BaF3_EGFRWT cells.

`Cc1cc(Nc2ncnn3ccc(C4CCN(C(=O)/C=C/CN5CC6COCC6C5)CC4)c23)ccc1Oc1ccn2ncnc2c1` (stereo not drawn) [Example 119, E-1-(4-(4-((4-([1,2,4]triazolo[1,5-a]-208-midazol-7-yloxy)-3-methylphenyl)amino)pyrrolo[2,1-f][1,2,4]triazin-5-yl)piperidin-1-yl)-4-(tetrahydro-1H-furo[3,4-c]pyrrol-5(3H)-yl)but-2-en-1-one]: the figures for the half-maximal inhibitory concentration (IC50) in the experiment with BaF3_HER2YVMA cells, with BaF3_HER2WT cells and with BaF3_EGFRWT cells were less than 200 nM, less than 200 nM and 1500 to 5000 nM, respectively.

Values taken from US20250276983A1, “COMPOUNDS AND METHODS FOR MODULATING HER2” (IAMBIC THERAPEUTICS, INC., priority 2022, published 2025).
